According to ChEMBL document CHEMBL3588780, “Quinolyl analogues of norlobelane: novel potent inhibitors of [(3)H]dihydrotetrabenazine binding and [(3)H]dopamine uptake at the vesicular monoamine transporter-2” (Bioorg Med Chem Lett, 2015):
pKi: −log10 of the molar value.

Assays:
[1] = target: Synaptic vesicular amine transporter (Rattus norvegicus) (UniProt Q01827); experiment: Displacement of [3H]DTBZ from VMAT2 in rat whole brain relative to quinlobelane
[2] = target: Synaptic vesicular amine transporter (Rattus norvegicus) (UniProt Q01827); experiment: Ratio of Ki for displacement of [3H]DTBZ from VMAT2 in rat whole brain to Ki for inhibition of VMAT2-mediated [3H]DA uptake in rat brain synaptic vesicles; type: tissue-based
[3] = target: T1, Synaptic vesicular amine transporter (Rattus norvegicus, UniProt Q01827); experiment: Displacement of [3H]DTBZ from VMAT2 in rat whole brain by liquid scintillation spectrometry
[4] = target: T1, Synaptic vesicular amine transporter; experiment: Inhibition of VMAT2-mediated [3H]DA uptake in rat brain synaptic vesicles by liquid scintillation spectrometry; type: tissue-based

T1 sequence (Q01827 whole entry): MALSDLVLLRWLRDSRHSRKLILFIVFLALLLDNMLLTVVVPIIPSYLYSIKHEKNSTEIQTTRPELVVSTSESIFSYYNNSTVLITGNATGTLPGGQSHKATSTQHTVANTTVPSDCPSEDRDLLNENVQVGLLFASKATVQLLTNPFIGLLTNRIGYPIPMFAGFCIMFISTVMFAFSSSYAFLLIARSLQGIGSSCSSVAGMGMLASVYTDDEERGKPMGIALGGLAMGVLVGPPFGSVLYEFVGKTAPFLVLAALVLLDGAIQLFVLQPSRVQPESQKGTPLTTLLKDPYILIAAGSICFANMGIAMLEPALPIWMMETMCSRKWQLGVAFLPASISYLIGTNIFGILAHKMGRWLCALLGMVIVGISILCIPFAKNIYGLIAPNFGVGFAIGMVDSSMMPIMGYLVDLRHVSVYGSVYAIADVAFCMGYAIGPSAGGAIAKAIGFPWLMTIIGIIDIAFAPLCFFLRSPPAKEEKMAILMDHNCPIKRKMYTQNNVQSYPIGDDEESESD
Chain of Synaptic vesicular amine transporter (Rattus norvegicus) (Q01827 whole entry): as above

| Ratio Ki [1] | Ratio Ki [2] | pKi [3] | pKi [4] | SMILES |
| --- | --- | --- | --- | --- |
|  |  | 6.75 | 7.38 | c1ccc2c(CC[C@H]3CCC[C@@H](CCc4ccnc5ccccc45)N3)ccnc2c1 |
| 9 | 3 | 6.53 | 7.24 | c1ccc2nc(CC[C@H]3CCC[C@@H](CCc4ccc5ccccc5n4)N3)ccc2c1 |
| 4 | 3 | 6.20 | 6.62 | OC[C@H](O)CN1[C@@H](CCc2ccc3ccccc3n2)CCC[C@H]1CCc1ccc2ccccc2n1 |

| SMILES | Ratio Ki [1] | Ratio Ki [2] | pKi [3] | pKi [4] |
| --- | --- | --- | --- | --- |
| c1cnc2ccc(CC[C@H]3CCC[C@@H](CCc4ccc5ncccc5c4)N3)cc2c1 | 4 | 3 | 6.19 | 7.38 |
